Assay results published in paper PMC6268433, “New Sorafenib Derivatives: Synthesis, Antiproliferative Activity Against Tumour Cell Lines and Antimetabolic Evaluation” (Molecules, 2012).
Read-outs that look alike come from different tables or passages of the source.

Columns and labels:
MCF-7 (breast carcinoma) = test: Cytostatic activity, MTT assay; assay type: cell-based, human; settings: read-out: Tumour cell growth/IC50 MCF-7
Protocol: (§1) The experiments were carried out on six human tumour and one murine cell lines, which are derived from five solid tumour types and two (one murine and one human) suspension tumour cell lines. The following cell lines were used: HCT 116 (colon carcinoma), SW 620 (colon carcinoma), MCF-7 (breast carcinoma), H 460 (lung carcinoma), L1210 (murine leukemia), CEM (human lymphoma) and HeLa (cervix carcinoma). […] Compounds 3d and 3e with a benzene ring in the amide moiety, exerted a somewhat stronger (but still rather poor) cytostatic effect (IC50 ≈ 20-90 µM). […] The compounds were also equally cytostatic against primary human embryonic lung (HEL) fibroblast cells (Table 2). The obtained data clearly point to the obligatory presence of the [4-chloro-3-(trifluoromethyl)phenyl]carbamoyl group being crucial for high potency. Also, the 4a–e series of compounds are far more lipophilic than the 2 and 3 series of compounds, which may be related to their increased cytostatic potential.
(§2) HCT 116, SW 620, MCF-7, and H 460 cells were cultured as monolayers and maintained in Dulbecco’s modified Eagle medium (DMEM), supplemented with 10% fetal bovine serum (FBS), 2 mmol·L^–1 L-glutamine, 100 U·mL^–1 penicillin and 100 μg·mL^–1 streptomycin in a humidified atmosphere with 5% CO2 at 37 °C. The growth inhibition activity was assessed as described previously, according to the slightly modified procedure of the National Cancer Institute, Developmental Therapeutics Program. Briefly, the cells were seeded onto standard 96-well microtiter plates on day 0. The cell concentrations were adjusted according to the cell population doubling time (PDT): 3000 cells/well for HCT116 and SW 620 cell lines (PDT = 20–24 h) and 4,000 cells/well for MCF-7 cell lines (PDT = 33 h). Tested agents were then added in five consecutive 10-fold dilutions (10^–8 to 10^–4 mol·L^–1) and incubated for further 72 h. Working dilutions were freshly prepared on the day of testing. The solvent (DMSO) was also tested for eventual inhibitory activity by adjusting its concentration to be the same as in working concentrations (maximal concentration of DMSO was 0.25%). After 72 h of incubation, the cell growth rate was evaluated by performing the MTT assay (Promega) which detects dehydrogenase activity in viable cells. The absorbency (OD, optical density) was measured on a microplate reader at 570 nm. Each test point was performed in quadruplicate in at least three individual experiments. The results are expressed as IC50, which is the concentration necessary for 50% of inhibition. […] Each result is a mean value from three separate experiments.

[1] = test system: HCT 116 (colon carcinoma); test: Cytostatic activity, MTT assay; assay type: cell-based, human; settings: read-out: Tumour cell growth/IC50 HCT 116
Protocol: as §1, §2

H 460 (lung carcinoma) = test: Cytostatic activity, MTT assay; assay type: cell-based, human; settings: read-out: Tumour cell growth/IC50 H 460
Protocol: as §1, §2

SW 620 (colon carcinoma) = test: Cytostatic activity, MTT assay; assay type: cell-based, human; settings: read-out: Tumour cell growth/IC50 SW 620
Protocol: as §1, §2

CaCo-2 cell cultures = test: Uptake at apical side and release at basolateral side of CaCo-2 cell cultures; assay type: in vitro ADME, human; settings: 100 µmol·L^–1 at apical side, 0-24 h, HPLC
Excerpt: Derivatives 2a, 3a and 4a have been examined for their efficiency of uptake at the apical site and subsequent delivery at the basolateral site of colon carcinoma CaCo-2 cell cultures. This model system can be used to predict the potential of a drug to show oral bioavailability. Sorafenib was included as the reference compound. […] The molecular basis of this phenomenon is yet unclear.
Figure 1 Release of the tested compounds at the basolateral side by CaCo-2 cell cultures. Hundred micromolar concentrations of the tested compounds were added at the apical side of confluent CaCo-2 cell cultures, and the appearance of the intact tested compound at the basolateral side was measured by HPLC analysis.
Human colon carcinoma CaCo-2 cells were seeded in the inner wells of a double-chamber-well-tray at 150,000 cells (0.5 mL) per 1 mL-well. The outer wells also contain 0.5 mL medium (without cells). After the cells were grown to confluency (~2 days) at 37 °C in a humidified CO2-controlled atmosphere, 100 µmol·L^–1 tested compound (final concentration) was added to the inner well, and the medium from the outer wells was replaced by 800 µL PBS (containing 10% foetal bovine serum). At different time points (i.e., 0, 2, 4, 6, 8 and 24 h), 50 µL was removed from the outer wells and mixed with 100 µL cold methanol. The mixture was left on ice for 10 min, centrifuged to remove the precipitate, and the supernatant was analysed by HPLC (reversed phase) to determine the drug concentration that appeared in the outer wells (reflecting basolateral drug efflux) in function of time.

[2] = test system: protein synthesis in CEM cells; test: Antimetabolic activity: [4,5-3H]Leu incorporation (protein synthesis) in CEM cell cultures; assay type: cell-based; settings: Homo sapiens, CCRF-CEM, ~20 h, TCA-insoluble material
Excerpt: (§3) A variety of compounds (2a, 3a, 4a with a cycloalkyl substituent directly attached to nitrogen atom, 2c, 3c, 4c with a cycloalkyl bound to nitrogen through a short spacer and 2e, 3e, 4e with an aromatic substituent) have been investigated on their inhibitory activity against DNA, RNA and protein synthesis in CEM cell cultures. The compounds were equally inhibitory to dThd (DNA synthesis), Urd (RNA synthesis) and Leu (protein synthesis) incorporation into TCA-insoluble cell material. The 2 series of compounds were least inhibitory whereas the 4 series were most inhibitory (IC50 in the lower micromolar range). Their antimetabolic IC50 values closely corresponded to their antiproliferative IC50 values. They also behaved as sorafenib in terms of antimetabolic potential (Table 3).
(§4) The procedures have been modified from previously described methods. Human CEM cells were seeded in 96-well microtiter plates at 10 × 10^4 cells/200 µL-well in the presence of serial dilutions of the tested compounds. Then, 0.25 µCi of [CH3-^3H]dThd (radiospecificity: 52 Ci/mmol) or 1 µCi of [5-^3H]Urd (radiospecificity: 26 Ci/mmol) or [4,5-^3H]Leu (radiospecificity: 160 Ci/mmol) were added and the drug-exposed tumour cell cultures further incubated at 37 °C for ~20 h. Then the content of each well was transfered to glass fiber discs (Wattman, GE Healthcare, Maidstone, UK), mounted on a manifold (Millipore, Billerica, MA, USA) and subsequently washed with PBS (to remove the radiolabel material that has not been incorporated in the cellular macromolecules), 10% and 5% trichoroacetic acid (TCA) (to precipitate DNA, RNA and proteins) and ethanol. Then, the radioactivity (TCA precipitate) associated with each disc was determined in a liquid scintillation counter (Packard, Palo Alto, CA, USA).

HeLa (cervix carcinoma) = test: Cytostatic activity, Coulter counter; assay type: cell-based, human; settings: 72 h, cell number by Coulter counter, read-out: Tumour cell growth/IC50 HeLa
Protocol: as §1
(§5) The cytostatic activity of the tested compounds against murine leukemia L1210, human cervix carcinoma HeLa, human embrionic lung (HEL) and T-lymphocyte CEM cells was determined with cells grown in suspension (L1210, CEM) or monolayers (HeLa, HEL) in 200 µL-wells of 96-well microtiter plates (initial cell number: 5–7.5 × 10^4 cells/well). After 48 (L1210) or 72 (CEM, HeLa, HEL) h, the tumour cell number was determined by the use of a Coulter counter.

[3] = test system: DNA synthesis in CEM cells; test: Antimetabolic activity: [CH3-3H]dThd incorporation (DNA synthesis) in CEM cell cultures; assay type: cell-based; settings: Homo sapiens, CCRF-CEM, ~20 h, TCA-insoluble material
Excerpt: as §3, §4

CEM (human lymphoma) = test: Cytostatic activity, Coulter counter; assay type: cell-based; settings: 72 h, cell number by Coulter counter, read-out: Tumour cell growth/IC50 CEM
Protocol: as §1, §5

[4] = test system: primary human embryonic lung (HEL) fibroblast cells; test: Cytostatic activity, Coulter counter; assay type: cell-based; settings: 72 h, cell number by Coulter counter, primary fibroblasts
Protocol: as §1, §5

L1210 (murine leukemia) = test: Cytostatic activity, Coulter counter; assay type: cell-based; settings: 48 h, cell number by Coulter counter, read-out: Tumour cell growth/IC50 L1210
Protocol: as §1, §5

[5] = test system: RNA synthesis in CEM cells; test: Antimetabolic activity: [5-3H]Urd incorporation (RNA synthesis) in CEM cell cultures; assay type: cell-based; settings: Homo sapiens, CCRF-CEM, ~20 h, TCA-insoluble material
Excerpt: as §3, §4

23 cell lines = test system: 23 cell lines; parameters: method as in PMID 20672370; settings: median over 23 cell lines; cited from earlier work
[6] = test system: panel of carcinoma, lymphoma and leukemia tumour cell lines; test: Cytostatic activity across the panel of tumour cell lines; assay type: cell-based; settings: Table 2; read-out: IC50 (cytostatic effect, range over cell lines)
Protocol: as §1, with “The obtained data clearly point to the obligatory presence of the [4-chloro-3-(trifluoromethyl)phenyl]carbamoyl group being crucial for high potency. Also, the 4a–e series of compounds are far more lipophilic than the 2 and 3 series of compounds, which may be related to their increased cytostatic potential.” left out
HCT 116, SW 620, MCF-7, and H 460 cells were cultured as monolayers and maintained in Dulbecco’s modified Eagle medium (DMEM), supplemented with 10% fetal bovine serum (FBS), 2 mmol·L^–1 L-glutamine, 100 U·mL^–1 penicillin and 100 μg·mL^–1 streptomycin in a humidified atmosphere with 5% CO2 at 37 °C. The growth inhibition activity was assessed as described previously, according to the slightly modified procedure of the National Cancer Institute, Developmental Therapeutics Program. […] After 72 h of incubation, the cell growth rate was evaluated by performing the MTT assay (Promega) which detects dehydrogenase activity in viable cells. The absorbency (OD, optical density) was measured on a microplate reader at 570 nm. […]

Row | IC50 (MCF-7 (breast carcinoma); Homo sapiens, MCF7, 72 h) [µM] | IC50 ([1]; Homo sapiens, HCT-116, 72 h) [µM] | IC50 (H 460 (lung carcinoma); Homo sapiens, NCI-H460, 72 h) [µM] | IC50 (SW 620 (colon carcinoma); Homo sapiens, SW-620, 72 h) [µM] | IC50 [2] [µM] | IC50 [3] [µM] | IC50 [5] [µM] | IC50 [6] [µM] | Compound | Drug delivery at the basolateral site compared with sorafenib (CaCo-2 cell cultures) | IC50 (HeLa (cervix carcinoma); Homo sapiens, HeLa) [µM] | IC50 (CEM (human lymphoma); Homo sapiens) [µM] | IC50 ([4]; Homo sapiens, Fibroblast) [µM] | IC50 (L1210 (murine leukemia); Mus musculus, L1210) [µM] | also measured
1 | 4 ± 1 | 3 ± 0.5 | 1 | 2 ± 0.4 | 6.1 ± 0.7 | 12.5 ± 6.7 | 7.7 ± 2.1 |  | O=C(Nc1ccc(Oc2ccnc(C(=O)NC3CCCC3)c2)cc1)Nc1ccc(Cl)c(C(F)(F)F)c1 [Compound 4a, 4-[4-[[4-Chloro-3-(trifluoromethyl)phenyl]carbamoylamino]phenoxy]-N-cyclopentyl-pyridine-2-carboxamide] | less efficient than the reference compound | 3.1 ± 0.6 | 4.2 ± 0.6 | 2.8 | 4.2 ± 0.8 | 
2 | > 100 | > 100 | ≥ 100 | > 100 | > 100 | > 100 | > 100 |  | O=C(NC1CCCC1)c1cc(Cl)ccn1 [Compound 2a, 4-Chloro-N-cyclopentylpyridine-2-carboxamide] | higher drug delivery at the basolateral site than sorafenib | > 100 | > 100 | > 100 | > 100 | 
3 |  |  |  |  | 12 ± 7 | 8.6 ± 1.1 | 7.1 ± 0.2 |  | CNC(=O)c1cc(Oc2ccc(NC(=O)Nc3ccc(Cl)c(C(F)(F)F)c3)cc2)ccn1 [Sorafenib, 4-[4-[[4-chloro-3-(trifluoromethyl)phenyl]carbamoylamino]phenoxy]-N-methylpyridine-2-carboxamide] |  |  |  |  |  | IC50 (MCF-7 (breast carcinoma); 72 h): 3 ± 0.7 µM; IC50 ([1]; 72 h): 3 ± 0.8 µM; IC50 (H 460 (lung carcinoma); 72 h): 3 ± 0.8 µM; IC50 (SW 620 (colon carcinoma); 72 h): 6 ± 1 µM; IC50 (HeLa (cervix carcinoma)): 3.7 ± 0.6 µM; IC50 (23 cell lines): 4.3 µM; IC50 (CEM (human lymphoma)): 3.4 ± 0.5 µM; IC50 [4]: 7.5 ± 0.7 µM; IC50 (L1210 (murine leukemia)): 4.1 µM
4 | 53 ± 40 | 54 ± 21 | > 100 | ≥ 100 | > 100 | > 100 | > 100 |  | Nc1ccc(Oc2ccnc(C(=O)NC3CCCC3)c2)cc1 [Compound 3a, 4-(4-Aminophenoxy)-N-cyclopentylpyridine-2-carboxamide] | higher drug delivery at the basolateral site than sorafenib | 77 ± 3.4 | ≥ 100 | > 100 | 121 ± 50.5 | 
5 | 34 ± 17 | 25 ± 2 | 20 | 20 ± 7 | > 100 | > 100 | 49.9 ± 17.9 | 20 to 90 | Nc1ccc(Oc2ccnc(C(=O)NCCc3ccccc3)c2)cc1 [Compound 3e, 4-(4-Aminophenoxy)-N-phenylethylpyridine-2-carboxamide] |  | 39 ± 3 | 42 ± 3 | > 100 | 63 ± 8.9 | 
6 | 29 ± 13 | 29 ± 4 | 42 ± 9 | 37 ± 6 |  |  |  | 20 to 90 | Nc1ccc(Oc2ccnc(C(=O)NCc3ccccc3)c2)cc1 [Compound 3d, 4-(4-Aminophenoxy)-N-benzylpyridine-2-carboxamide] |  | 94 ± 1.9 | 94 ± 2.2 | > 100 | 66 ± 3.1 | 
